Experimental data as given in patent US20170355705A1 (GlaxoSmithKline Intellectual Property (No.2) Limited, priority 2014, published 2017).

Molecular target: T1, SIRT1 (Homo sapiens, UniProt Q96EB6)
T1 sequence (Q96EB6 1-747): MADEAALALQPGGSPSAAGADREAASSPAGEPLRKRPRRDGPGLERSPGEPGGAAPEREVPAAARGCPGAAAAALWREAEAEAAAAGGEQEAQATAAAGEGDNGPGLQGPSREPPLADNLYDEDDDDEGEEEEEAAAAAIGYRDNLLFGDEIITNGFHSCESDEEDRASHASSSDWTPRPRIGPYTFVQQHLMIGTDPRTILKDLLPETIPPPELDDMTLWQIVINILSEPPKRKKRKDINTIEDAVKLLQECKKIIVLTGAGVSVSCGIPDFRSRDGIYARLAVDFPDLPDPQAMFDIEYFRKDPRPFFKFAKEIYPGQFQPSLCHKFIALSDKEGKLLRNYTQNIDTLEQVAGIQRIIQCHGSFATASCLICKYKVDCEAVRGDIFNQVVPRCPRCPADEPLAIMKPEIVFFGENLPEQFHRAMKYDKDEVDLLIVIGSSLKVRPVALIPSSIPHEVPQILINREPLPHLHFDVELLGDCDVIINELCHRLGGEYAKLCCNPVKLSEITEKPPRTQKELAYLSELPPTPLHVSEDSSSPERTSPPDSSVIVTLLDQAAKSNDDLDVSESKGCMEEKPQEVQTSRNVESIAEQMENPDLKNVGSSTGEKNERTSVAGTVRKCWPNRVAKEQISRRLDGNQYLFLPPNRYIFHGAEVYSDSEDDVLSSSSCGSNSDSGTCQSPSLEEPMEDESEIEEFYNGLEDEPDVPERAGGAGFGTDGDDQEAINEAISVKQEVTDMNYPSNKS
Assay: Trp mass spectrometry assay of SIRT1 activity (EC1.5, percent maximum activation)
Format: biochemical
Details: Trp mass spectrometry assay; for TRP Activity (EC1.5): EC1.5 = concentration giving 150% activation of SIRT1; for TRP MAX RESP (percent maximum fold activation): percent maximum activation of SIRT1
Outline: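 Activation values derive from mass-spectrometric measurement of NAD-dependent deacetylation product after a 25 min reaction of bacterially expressed His-tagged SIRT1 with a fluorophore-labelled Trp peptide.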

Row | SMILES | TRP Activity (EC1.5) | TRP MAX RESP (percent maximum fold activation)
1 | Cc1cc(-c2cc(C)c3c(n2)N(C(=O)Nc2cccnc2)[C@H]2CCN3C2)ccn1 [Example 84, (4S)-9-methyl-7-(2-methylpyridin-4-yl)-N-(pyridin-3-yl)-3,4-dihydro-1,4-methanopyrido[2,3-b][1,4]diazepine-5(2H)-carboxamide] | A (EC1.5<1 μM) | A (Fold activation ≧150%)
2 | Cc1ncc(-c2ccnc(NC(=O)N3c4nc(-c5cccc(C(F)(F)F)c5)cc(C)c4N4CC[C@H]3C4)c2)o1 [Example 86, (4S)-9-methyl-N-(4-(2-methyloxazol-5-yl)pyridin-2-yl)-7-(3-(trifluoromethyl)phenyl)-3,4-dihydro-1,4-methanopyrido[2,3-b][1,4]diazepine-5(2H)-carboxamide] | A (EC1.5<1 μM) | A (Fold activation ≧150%)
3 | Cc1cc(-c2cccc(C(F)(F)F)c2)nc2c1N1CC[C@@H](C1)N2C(=O)Nc1ccnc(OC[C@@H](O)CO)c1 [Example 87, (4S)-N-(2-((S)-2,3-dihydroxypropoxy)pyridin-4-yl)-9-methyl-7-(3-(trifluoromethyl)phenyl)-3,4-dihydro-1,4-methanopyrido[2,3-b][1,4]diazepine-5(2H)-carboxamide] | A (EC1.5<1 μM) | A (Fold activation ≧150%)
4 | Cc1ccc2c(NC(=O)N3c4nc(-c5cccc(C(F)(F)F)c5)c(Cl)cc4N4CC[C@H]3C4)n[nH]c2n1 [Example 88, (4S)-8-chloro-N-(6-methyl-1H-pyrazolo[3,4-b]pyridin-3-yl)-7-(3-(trifluoromethyl)phenyl)-3,4-dihydro-1,4-methanopyrido[2,3-b][1,4]diazepine-5(2H)-carboxamide] | A (EC1.5<1 μM) | A (Fold activation ≧150%)
5 | Cc1cc2c(nc1-c1cccc(C(F)F)c1)N(C(=O)Nc1ccnc(OC[C@@H](O)CO)c1)[C@H]1CCN2C1 [Example 89, (4S)-7-(3-(difluoromethyl)phenyl)-N-(2-((S)-2,3-dihydroxypropoxy)pyridin-4-yl)-8-methyl-3,4-dihydro-1,4-methanopyrido[2,3-b][1,4]diazepine-5(2H)-carboxamide] | A (EC1.5<1 μM) | A (Fold activation ≧150%)
6 | CCn1cc(-c2nc3c(cc2Cl)N2CC[C@@H](C2)N3C(=O)Nc2ccnc(OC[C@H](O)CO)c2)cn1 [Example 90, (4S)-8-chloro-N-(2-((R)-2,3-dihydroxypropoxy)pyridin-4-yl)-7-(1-ethyl-1H-pyrazol-4-yl)-3,4-dihydro-1,4-methanopyrido[2,3-b][1,4]diazepine-5(2H)-carboxamide] | B (EC1.5 1-25 μM) | A (Fold activation ≧150%)
7 | Cc1cc(-c2nc3c(c(C)c2C)N2CC[C@@H](C2)N3C(=O)Nc2cccnc2)ccn1 [Example 91, (4S)-8,9-dimethyl-7-(2-methylpyridin-4-yl)-N-(pyridin-3-yl)-3,4-dihydro-1,4-methanopyrido[2,3-b][1,4]diazepine-5(2H)-carboxamide] | B (EC1.5 1-25 μM) | A (Fold activation ≧150%)
8 | Cc1cc(-c2nc3c(cc2C#N)N2CC[C@@H](C2)N3C(=O)Nc2ccccn2)ccn1 [Example 92, (4S)-8-cyano-7-(2-methylpyridin-4-yl)-N-(pyridin-2-yl)-3,4-dihydro-1,4-methanopyrido[2,3-b][1,4]diazepine-5(2H)-carboxamide] | B (EC1.5 1-25 μM) | A (Fold activation ≧150%)
9 | Cc1cc(-c2nc3c(cc2Cl)N2CC[C@@H](C2)N3C(=O)Nc2cccc(OC[C@@H](O)CO)n2)ccn1 [Example 93, (4S)-8-chloro-N-(6-((S)-2,3-dihydroxypropoxy)pyridin-2-yl)-7-(2-methylpyridin-4-yl)-3,4-dihydro-1,4-methanopyrido[2,3-b][1,4]diazepine-5(2H)-carboxamide] | B (EC1.5 1-25 μM) | A (Fold activation ≧150%)
10 | Cc1cc(-c2nc3c(cc2Cl)N2CC[C@@H](C2)N3C(=O)Nc2ccnc(OC[C@@H](O)CO)n2)ccn1 [Example 94, (4S)-8-chloro-N-(2-((S)-2,3-dihydroxypropoxy)pyrimidin-4-yl)-7-(2-methylpyridin-4-yl)-3,4-dihydro-1,4-methanopyrido[2,3-b][1,4]diazepine-5(2H)-carboxamide] | C (EC1.5>25 μM) | B (Fold Activation <150%)
11 | Cc1cc(-c2nc3c(cc2Cl)N2CC[C@@H](C2)N3C(=O)Nc2cc(OC[C@H](O)CO)ncn2)ccn1 [Example 95, (4S)-8-chloro-N-(6-((R)-2,3-dihydroxypropoxy)pyrimidin-4-yl)-7-(2-methylpyridin-4-yl)-3,4-dihydro-1,4-methanopyrido[2,3-b][1,4]diazepine-5(2H)-carboxamide] | C (EC1.5>25 μM) | B (Fold Activation <150%)
12 | Cc1cc(-c2nc3c(cc2Cl)N2CC[C@@H](C2)N3C(=O)Nc2ccnc(OC[C@H](O)CO)n2)ccn1 [Example 96, (4S)-8-chloro-N-(2-((R)-2,3-dihydroxypropoxy)pyrimidin-4-yl)-7-(2-methylpyridin-4-yl)-3,4-dihydro-1,4-methanopyrido[2,3-b][1,4]diazepine-5(2H)-carboxamide] | C (EC1.5>25 μM) | B (Fold Activation <150%)
13 | Cc1cc(-c2nc3c(cc2Cl)N2CC[C@@H](C2)N3C(=O)Nc2cncc(OC[C@H](O)CO)n2)ccn1 [Example 97, (4S)-8-chloro-N-(6-((R)-2,3-dihydroxypropoxy)pyrazin-2-yl)-7-(2-methylpyridin-4-yl)-3,4-dihydro-1,4-methanopyrido[2,3-b][1,4]diazepine-5(2H)-carboxamide] | C (EC1.5>25 μM) | B (Fold Activation <150%)
14 | Cc1cc(-c2nc3c(cc2Cl)N2CC[C@@H](C2)N3C(=O)Nc2cncc(OC[C@@H](O)CO)n2)ccn1 [Example 98, (4S)-8-chloro-N-(6-((S)-2,3-dihydroxypropoxy)pyrazin-2-yl)-7-(2-methylpyridin-4-yl)-3,4-dihydro-1,4-methanopyrido[2,3-b][1,4]diazepine-5(2H)-carboxamide] | C (EC1.5>25 μM) | B (Fold Activation <150%)
15 | COc1ncc(-c2nc3c(cc2Cl)N2CC[C@@H](C2)N3C(=O)Nc2ccnc(OC[C@@H](O)CO)c2)cc1C(F)(F)F [Example 99, (4S)-8-chloro-N-(2-((S)-2,3-dihydroxypropoxy)pyridin-4-yl)-7-(6-methoxy-5-(trifluoromethyl)pyridin-3-yl)-3,4-dihydro-1,4-methanopyrido[2,3-b][1,4]diazepine-5(2H)-carboxamide] | B (EC1.5 1-25 μM) | A (Fold activation ≧150%)
16 | O=C(Nc1ccnc(OC[C@H](O)CO)c1)N1c2nc(-c3cnn(C4CC4)c3)c(Cl)cc2N2CC[C@H]1C2 [Example 100, (4S)-8-chloro-7-(1-cyclopropyl-1H-pyrazol-4-yl)-N-(2-((R)-2,3-dihydroxypropoxy)pyridin-4-yl)-3,4-dihydro-1,4-methanopyrido[2,3-b][1,4]diazepine-5(2H)-carboxamide] | B (EC1.5 1-25 μM) | A (Fold activation ≧150%)
17 | Cc1cc2c(nc1-c1cccc(C(F)(F)F)c1)N(C(=O)Nc1ccnc(OC[C@@H](O)CO)c1)[C@H]1CCN2C1 [Example 101, (4S)-N-(2-((S)-2,3-dihydroxypropoxy)pyridin-4-yl)-8-methyl-7-(3-(trifluoromethyl)phenyl)-3,4-dihydro-1,4-methanopyrido[2,3-b][1,4]diazepine-5(2H)-carboxamide] | A (EC1.5<1 μM) | A (Fold activation ≧150%)
18 | O=C(Nc1ccnc(OC[C@@H](O)CO)c1)N1c2nc(-c3cnn(C4CC4)c3)c(Cl)cc2N2CC[C@H]1C2 [Example 102, (4S)-8-chloro-7-(1-cyclopropyl-1H-pyrazol-4-yl)-N-(2-((S)-2,3-dihydroxypropoxy)pyridin-4-yl)-3,4-dihydro-1,4-methanopyrido[2,3-b][1,4]diazepine-5(2H)-carboxamide] | B (EC1.5 1-25 μM) | A (Fold activation ≧150%)
